# Measurements reported in ChEMBL document CHEMBL3885861, “Open TG-GATES”.
# Species: Rattus norvegicus
# Assay: Open TG-GATES - Regimen: Single
# Type: toxicity, organism-based, Sprague-Dawley
# Design: regimen Single, gender Male, age 6 weeks
# Details: in vivo, po, route gavage; for gamma-GTP / ALP / ALT / AST / BUN / CRE / DBIL / GLC / IP / K / LDH / Na / PL / RALB / TBIL / TC / TG / TP: tissue Plasma; for APTT / Bas / Eos / Fbg / Hb / Ht / Lym / MCHC / MCV / Mono / Neu / PT / Plat / RBC / Ret / WBC: tissue Blood; for KIDNEY_L / KIDNEY_R / KIDNEY_TOTAL: tissue Kidney; for LIVER: tissue Liver
# [1] = 300 mg/kg, 24 h, dose level Low
compound,measurement,setting,value
C#C[C@]1(O)CC[C@H]2[C@@H]3CCC4=Cc5oncc5C[C@]4(C)[C@H]3CC[C@@]21C [DANAZOL],gamma-GTP,"0 mg/kg, 24 h, dose level Control",2.2 IU/L
same,TERMINAL_BW,"300 mg/kg, 3 h, dose level Low",219.6 g
same,APTT,"300 mg/kg, 3 h, dose level Low",23.3 s
same,Bas,"300 mg/kg, 3 h, dose level Low",0%
same,Eos,"300 mg/kg, 3 h, dose level Low",0.6%
same,Fbg,"300 mg/kg, 3 h, dose level Low",297.4 mg/dL
same,Hb,"300 mg/kg, 3 h, dose level Low",13.6 g/dL
same,Ht,"300 mg/kg, 3 h, dose level Low",40.9%
same,Lym,"300 mg/kg, 3 h, dose level Low",84.4%
same,MCHC,"300 mg/kg, 3 h, dose level Low",33.3%
same,MCV,"300 mg/kg, 3 h, dose level Low",62.6 fL
same,Mono,"300 mg/kg, 3 h, dose level Low",1.6%
same,Neu,"300 mg/kg, 3 h, dose level Low",12.6%
same,PT,"300 mg/kg, 3 h, dose level Low",15.8 s
same,Plat,"300 mg/kg, 3 h, dose level Low",102 x10_4/uL
same,RBC,"300 mg/kg, 3 h, dose level Low",654 x10_4/ul
same,Ret,"300 mg/kg, 3 h, dose level Low",7.2%
same,WBC,"300 mg/kg, 3 h, dose level Low",80 x10_2/uL
same,KIDNEY_L,"300 mg/kg, 3 h, dose level Low",0.9 g
same,KIDNEY_R,"300 mg/kg, 3 h, dose level Low",1 g
same,KIDNEY_TOTAL,"300 mg/kg, 3 h, dose level Low",1.9 g
same,LIVER,"300 mg/kg, 3 h, dose level Low",9.9 g
same,ALP,"300 mg/kg, 3 h, dose level Low",1338.8 IU/L
same,ALT,"300 mg/kg, 3 h, dose level Low",43.4 IU/L
same,AST,"300 mg/kg, 3 h, dose level Low",77.6 IU/L
same,BUN,"300 mg/kg, 3 h, dose level Low",15.4 mg/dL
same,CRE,"300 mg/kg, 3 h, dose level Low",0.2 mg/dL
same,DBIL,"300 mg/kg, 3 h, dose level Low",0 mg/dL
same,GLC,"300 mg/kg, 3 h, dose level Low",178.6 mg/dL
same,IP,"300 mg/kg, 3 h, dose level Low",8.2 mg/dL
same,K,"300 mg/kg, 3 h, dose level Low",4.3 meq/L
same,LDH,"300 mg/kg, 3 h, dose level Low",149 IU/L
same,Na,"300 mg/kg, 3 h, dose level Low",141.6 meq/L
same,PL,"300 mg/kg, 3 h, dose level Low",131.8 mg/dL
same,RALB,"300 mg/kg, 3 h, dose level Low",2.9 g/dL
same,TBIL,"300 mg/kg, 3 h, dose level Low",0.016 mg/dL
same,TC,"300 mg/kg, 3 h, dose level Low",68.4 mg/dL
same,TG,"300 mg/kg, 3 h, dose level Low",87 mg/dL
same,TP,"300 mg/kg, 3 h, dose level Low",5.5 g/dL
same,gamma-GTP,"300 mg/kg, 3 h, dose level Low",1.8 IU/L
same,APTT,"300 mg/kg, 6 h, dose level Low",23.9 s
same,Bas,"300 mg/kg, 6 h, dose level Low",0%
same,Eos,"300 mg/kg, 6 h, dose level Low",0.8%
same,Fbg,"300 mg/kg, 6 h, dose level Low",284.6 mg/dL
same,Hb,"300 mg/kg, 6 h, dose level Low",13 g/dL
same,Ht,"300 mg/kg, 6 h, dose level Low",40.1%
same,Lym,"300 mg/kg, 6 h, dose level Low",76.8%
same,MCHC,"300 mg/kg, 6 h, dose level Low",32.4%
same,MCV,"300 mg/kg, 6 h, dose level Low",63.6 fL
same,Mono,"300 mg/kg, 6 h, dose level Low",2.6%
same,Neu,"300 mg/kg, 6 h, dose level Low",18.8%
same,PT,"300 mg/kg, 6 h, dose level Low",16.7 s
same,Plat,"300 mg/kg, 6 h, dose level Low",120.1 x10_4/uL
same,RBC,"300 mg/kg, 6 h, dose level Low",631.8 x10_4/ul
same,Ret,"300 mg/kg, 6 h, dose level Low",7.6%
same,WBC,"300 mg/kg, 6 h, dose level Low",85.9 x10_2/uL
same,KIDNEY_L,"300 mg/kg, 6 h, dose level Low",0.9 g
same,KIDNEY_R,"300 mg/kg, 6 h, dose level Low",0.9 g
same,KIDNEY_TOTAL,"300 mg/kg, 6 h, dose level Low",1.9 g
same,LIVER,"300 mg/kg, 6 h, dose level Low",9 g
same,ALP,"300 mg/kg, 6 h, dose level Low",1332 IU/L
same,ALT,"300 mg/kg, 6 h, dose level Low",35.4 IU/L
same,AST,"300 mg/kg, 6 h, dose level Low",70.2 IU/L
same,BUN,"300 mg/kg, 6 h, dose level Low",10.2 mg/dL
same,CRE,"300 mg/kg, 6 h, dose level Low",0.2 mg/dL
same,DBIL,"300 mg/kg, 6 h, dose level Low",0.004 mg/dL
same,GLC,"300 mg/kg, 6 h, dose level Low",177.8 mg/dL
same,IP,"300 mg/kg, 6 h, dose level Low",9 mg/dL
same,K,"300 mg/kg, 6 h, dose level Low",4.3 meq/L
same,LDH,"300 mg/kg, 6 h, dose level Low",150.6 IU/L
same,Na,"300 mg/kg, 6 h, dose level Low",142.2 meq/L
same,PL,"300 mg/kg, 6 h, dose level Low",128.6 mg/dL
same,RALB,"300 mg/kg, 6 h, dose level Low",3 g/dL
same,TBIL,"300 mg/kg, 6 h, dose level Low",0.032 mg/dL
same,TC,"300 mg/kg, 6 h, dose level Low",64.2 mg/dL
same,TG,"300 mg/kg, 6 h, dose level Low",58 mg/dL
same,TP,"300 mg/kg, 6 h, dose level Low",5.3 g/dL
same,gamma-GTP,"300 mg/kg, 6 h, dose level Low",1.6 IU/L
same,TERMINAL_BW,"300 mg/kg, 9 h, dose level Low",214.6 g
same,APTT,"300 mg/kg, 9 h, dose level Low",22.8 s
same,Bas,"300 mg/kg, 9 h, dose level Low",0%
same,Eos,"300 mg/kg, 9 h, dose level Low",0.8%
same,Fbg,"300 mg/kg, 9 h, dose level Low",295.4 mg/dL
same,Hb,"300 mg/kg, 9 h, dose level Low",13 g/dL
same,Ht,"300 mg/kg, 9 h, dose level Low",39.6%
same,Lym,"300 mg/kg, 9 h, dose level Low",78.6%
same,MCHC,"300 mg/kg, 9 h, dose level Low",32.8%
same,MCV,"300 mg/kg, 9 h, dose level Low",61.1 fL
same,Mono,"300 mg/kg, 9 h, dose level Low",2.4%
same,Neu,"300 mg/kg, 9 h, dose level Low",17.8%
same,PT,"300 mg/kg, 9 h, dose level Low",16.7 s
same,Plat,"300 mg/kg, 9 h, dose level Low",117.4 x10_4/uL
same,RBC,"300 mg/kg, 9 h, dose level Low",650.2 x10_4/ul
same,Ret,"300 mg/kg, 9 h, dose level Low",7.4%
same,WBC,"300 mg/kg, 9 h, dose level Low",72.2 x10_2/uL
same,KIDNEY_L,"300 mg/kg, 9 h, dose level Low",1 g
same,KIDNEY_R,"300 mg/kg, 9 h, dose level Low",1 g
same,KIDNEY_TOTAL,"300 mg/kg, 9 h, dose level Low",2 g
same,LIVER,"300 mg/kg, 9 h, dose level Low",9.5 g
same,ALP,"300 mg/kg, 9 h, dose level Low",1341.8 IU/L
same,ALT,"300 mg/kg, 9 h, dose level Low",35.8 IU/L
same,AST,"300 mg/kg, 9 h, dose level Low",66.2 IU/L
same,BUN,"300 mg/kg, 9 h, dose level Low",10.8 mg/dL
same,CRE,"300 mg/kg, 9 h, dose level Low",0.1 mg/dL
same,DBIL,"300 mg/kg, 9 h, dose level Low",0.002 mg/dL
same,GLC,"300 mg/kg, 9 h, dose level Low",185.8 mg/dL
same,IP,"300 mg/kg, 9 h, dose level Low",9.8 mg/dL
same,K,"300 mg/kg, 9 h, dose level Low",4.3 meq/L
same,LDH,"300 mg/kg, 9 h, dose level Low",132 IU/L
same,Na,"300 mg/kg, 9 h, dose level Low",142.4 meq/L
same,PL,"300 mg/kg, 9 h, dose level Low",109.4 mg/dL
same,RALB,"300 mg/kg, 9 h, dose level Low",2.9 g/dL
same,TBIL,"300 mg/kg, 9 h, dose level Low",0.024 mg/dL
same,TC,"300 mg/kg, 9 h, dose level Low",54.2 mg/dL
same,TG,"300 mg/kg, 9 h, dose level Low",57.2 mg/dL
same,TP,"300 mg/kg, 9 h, dose level Low",5.3 g/dL
same,gamma-GTP,"300 mg/kg, 9 h, dose level Low",1.8 IU/L
same,TERMINAL_BW,[1],226.8 g
same,APTT,[1],23.3 s
same,Bas,[1],0%
same,Eos,[1],0.6%
same,Fbg,[1],307.6 mg/dL
same,Hb,[1],13.2 g/dL
same,Ht,[1],40.1%
same,Lym,[1],81.8%
same,MCHC,[1],32.9%
same,MCV,[1],62.6 fL
same,Mono,[1],2.2%
same,Neu,[1],14.6%
same,PT,[1],17 s
same,Plat,[1],116.4 x10_4/uL
same,RBC,[1],639.6 x10_4/ul
same,Ret,[1],7.3%
same,WBC,[1],87.1 x10_2/uL
same,KIDNEY_L,[1],1 g
same,KIDNEY_R,[1],1.1 g
same,KIDNEY_TOTAL,[1],2.1 g
same,LIVER,[1],11.5 g
same,ALP,[1],1893.6 IU/L
same,ALT,[1],37.4 IU/L
same,AST,[1],66.4 IU/L
same,BUN,[1],15.8 mg/dL
same,CRE,[1],0.2 mg/dL
same,DBIL,[1],0 mg/dL
same,GLC,[1],187.6 mg/dL
same,IP,[1],7.2 mg/dL
same,K,[1],4.3 meq/L
same,LDH,[1],167 IU/L
same,Na,[1],141.2 meq/L
same,PL,[1],130 mg/dL
same,RALB,[1],3.1 g/dL
same,TBIL,[1],0.002 mg/dL
same,TC,[1],48.2 mg/dL
same,TG,[1],223.8 mg/dL
same,TP,[1],5.6 g/dL
same,gamma-GTP,[1],1.4 IU/L
